Assays:
[1] = system: 3T3-L1; experiment: Induction of adipogenesis in mouse 3T3L1 cells assessed as increase in triglyceride level at 1 uM on day 8 relative to control; type: functional
[2] = system: 3T3-L1; experiment: Induction of adipogenesis in mouse 3T3L1 cells assessed as increase in triglyceride level at 3 uM on day 8 relative to control; type: functional
[3] = system: 3T3-L1; experiment: Induction of adipogenesis in mouse 3T3L1 cells assessed as increase in triglyceride level at 10 uM on day 8 relative to control; type: functional
[4] = system: 3T3-L1; experiment: Induction of adipogenesis in mouse 3T3L1 cells assessed as increase in triglyceride level at 30 uM on day 8 relative to control; type: functional
[5] = system: 3T3-L1; experiment: Induction of adipogenesis in mouse 3T3L1 cells assessed as increase in triglyceride level at 0.3 uM on day 8 relative to control; type: functional
[6] = system: 3T3-L1; experiment: Cytotoxicity in mouse 3T3L1 cells assessed as reduction in triglyceride accumulation at 30 uM; type: cell-based; conditions: 3t3-l1, 30 µM

| Compound | Activity [1] [%] | Activity [2] [%] | Activity [3] [%] | Activity [4] [%] | Activity [5] [%] | Activity [6] |
| --- | --- | --- | --- | --- | --- | --- |
| COc1ccc(-c2cc(=O)c3ccc(OC)cc3o2)cc1 [4,7-DIMETHOXYFLAVONE] | 1.2 | 3.4 | 4.3 | 6.3 |  |  |
| O=c1cc(-c2ccc(O)c(O)c2)oc2ccccc12 | 5.9 | 13.8 | 9.8 | -21 |  |  |
| Oc1cc(O)c2c(c1)O[C@H](c1ccc(O)c(O)c1)[C@@H](O)C2 [CIANIDANOL] | -0.5 | 6.4 | 7.9 | 11.9 |  |  |
| COc1cc(O)c2c(=O)c(OC)c(-c3ccc(OC)c(O)c3)oc2c1 [AYANIN] | 2.6 | 16.3 | 18.5 | 0.4 |  |  |
| COc1cc(OC)c2c(=O)cc(-c3ccc(OC)c(OC)c3)oc2c1 [TETRAMETHYLLUTEOLIN] | 2.6 | 3.1 | 7.4 | -15.3 |  |  |
| COc1c(O)cc(O)c2c(=O)cc(-c3ccccc3)oc12 [WOGONIN] | 7.8 | 9.6 | 19.2 | 16.6 |  |  |
| COc1cc(O)c2c(=O)c(OC)c(-c3ccccc3)oc2c1 | 13.3 | 13.7 | 14.2 | 17.7 |  |  |
| O=c1c(-c2ccc(O)cc2)coc2cc(O)cc(O)c12 [GENISTEIN] | -4.3 | -4.3 | -17.6 | -19.2 |  |  |
| O=C1C[C@@H](c2ccc(O)c(O)c2)Oc2cc(O)cc(O)c21 [ERIODICTYOL] | 1.6 | -5 | -10.3 | -10.3 |  |  |
| O=C1CC(c2ccccc2)Oc2ccccc21 (centres undefined) [FLAVANONE] | -1.9 | 5.1 | 2.5 | 1 |  |  |
| COc1ccc(-c2cc(=O)c3c(O)cc(OC)cc3o2)cc1 | 19 | 12.2 | 5.8 | 6.8 | 7.7 |  |
| COc1ccc(-c2coc3cc(O)cc(O)c3c2=O)cc1 [BIOCHANIN] | 2.6 | 6.1 | 1.2 | -16.5 |  |  |
| O=c1cc(-c2ccc(O)cc2)oc2cc(O)cc(O)c12 [APIGENIN] | 4.5 | 4.9 | 7 | -7.7 |  |  |
| COc1ccc2c(c1)OC(c1ccc(O)cc1)CC2=O (centres undefined) | -1.2 | 2.2 | 2.6 | 13.5 |  |  |
| O=c1cc(-c2ccccc2)oc2cc(O)c(O)c(O)c12 [BAICALEIN] | -5.2 | -7.7 | -21.8 | -37.2 |  | Toxic |
| O=c1cc(-c2ccc(O)c(O)c2)oc2cc(O)ccc12 | 4.5 | 9 | 14.8 | -1.7 |  |  |
| O=c1c(O[C@@H]2O[C@H](CO)[C@@H](O)[C@H](O)[C@H]2O)c(-c2ccc(O)cc2)oc2cc(O)cc(O)c12 [ASTRAGALIN] | 2.1 | 4.7 | 8.8 | 10.2 |  |  |
| O=c1cc(-c2ccc(O)cc2)oc2cc(O)ccc12 | -8.1 | -3.9 | -1.5 | -5.7 |  |  |

| Compound | Activity [1] [%] | Activity [2] [%] | Activity [3] [%] | Activity [4] [%] | Activity [5] [%] | Activity [6] |
| --- | --- | --- | --- | --- | --- | --- |
| O=c1c(O)c(-c2ccc(O)c(O)c2)oc2cc(O)cc(O)c12 [QUERCETIN] | 7 | 5.8 | 3 | 3.9 |  |  |
| COc1ccc(-c2cc(=O)c3c(OC)c(OC)c(OC)c(OC)c3o2)cc1OC [NOBILETIN] | 15.3 | 12.6 | 10.7 | -6.7 | 14.1 |  |
| Oc1cc(O)c2c(c1)O[C@H](c1ccc(O)c(O)c1)[C@H](O)C2 [(-)-EPICATECHIN] | 3.7 | 6.1 | -7.2 | -0.6 |  |  |
| Oc1cc(O)c2c(c1)O[C@H](c1cc(O)c(O)c(O)c1)[C@H](O)C2 [EPIGALLOCATECHIN] | -9.5 | -3.8 | -10.2 | -19.5 |  |  |
| COc1cc(O)c2c(=O)c(O)c(-c3ccc(O)c(O)c3)oc2c1 [RHAMNETIN] | 19 | 1.9 | 2.4 | -21.4 | 15.5 |  |
| O=c1c(O)c(-c2ccc(O)c(O)c2)oc2c(O)c(O)cc(O)c12 [GOSSYPETIN] | 17.5 | -2.9 | -6.7 | -9.5 |  |  |
| O=c1cc(-c2ccccc2)oc2cc(O)ccc12 [7-HYDROXYFLAVONE] | 12.2 | 13.7 | 17.1 | 5.3 |  |  |
| O=C(/C=C/c1ccc(O)cc1)c1ccc(O)cc1O [ISOLIQUIRITIGENIN] | 2.7 | 4 | -0.7 | -33.7 |  |  |
| O=c1c(O[C@@H]2O[C@H](CO)[C@@H](O)[C@H](O)[C@H]2O)c(-c2ccc(O)c(O)c2)oc2cc(O)cc(O)c12 [ISOQUERCETIN] | -2.2 | 0.1 | -0.2 | -2.4 |  |  |
| O=c1c(O)c(-c2cc(O)c(O)c(O)c2)oc2cc(O)cc(O)c12 [MYRICETIN] | 4.3 | 2.7 | -0.7 | 5.6 |  |  |
| COc1cc(O)c2c(=O)cc(-c3ccccc3)oc2c1 [TECHTOCHRYSIN] | 7.4 | 10.7 | 10.4 | 17.5 |  |  |
| O=C(/C=C/c1ccc(O)c(O)c1)c1ccc(O)cc1O [BUTEIN] | 14.8 | 17.5 | -7.3 | -80.8 |  | Toxic |
| O=c1c(O)c(-c2ccc(O)c(O)c2)oc2cc(O)ccc12 [FISETIN] | 4.1 | -2.4 | -8.8 | -2.7 |  |  |
| O=c1cc(-c2ccccc2)oc2ccccc12 [FLAVONE] | -2.6 | -6.8 | -5.2 | -10.9 |  |  |
| COc1cc(OC)c2c(=O)c(OC)c(-c3ccccc3)oc2c1 | 9 | 10.4 | 13.2 | 6.6 |  |  |
| COc1cc(O)c2c(=O)c(O)c(-c3ccc(OC)c(O)c3)oc2c1 [OMBUINE] | -2.1 | 5.9 | 4.6 | 24.7 |  |  |
| O=c1c(-c2ccc(O)cc2)coc2cc(O)ccc12 [DAIDZEIN] | 2 | 6.5 | 8.5 | 13.4 |  |  |
| COc1cc(O)c2c(=O)c(OC)c(-c3ccc(OC)c(OC)c3)oc2c1 [RETUSIN] | 3.8 | 11.2 | 21 | 3.8 |  |  |

Reference: ChEMBL document CHEMBL1772964, “Structural requirements of flavonoids for the adipogenesis of 3T3-L1 cells” (Bioorg Med Chem, 2011)
